Reference: patent US10106556B2, “Heterocyclic compound” (TAKEDA PHARMACEUTICAL COMPANY LIMITED, priority 2015, dated 2018)

Molecular target: T1, His-hMAGL (recombinant polyhistidine tagged human MAGL protein) (Homo sapiens, UniProt Q99685)
T1 construct: made in house; host or cells: E. coli BL21(DE3)
T1 sequence (Q99685 1-303): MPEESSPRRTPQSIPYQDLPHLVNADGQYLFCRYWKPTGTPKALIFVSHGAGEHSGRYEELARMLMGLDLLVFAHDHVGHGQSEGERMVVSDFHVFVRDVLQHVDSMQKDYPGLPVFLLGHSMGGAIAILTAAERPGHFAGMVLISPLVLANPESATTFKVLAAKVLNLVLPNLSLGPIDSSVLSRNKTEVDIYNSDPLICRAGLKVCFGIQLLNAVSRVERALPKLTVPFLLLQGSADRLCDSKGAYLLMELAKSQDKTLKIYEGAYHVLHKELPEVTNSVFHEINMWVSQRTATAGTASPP
Experiment: Measurement of MAGL inhibitory activity (arachidonic acid production from 2-arachidonylglycerol, RapidFire-mass spectrometry)
Type: biochemical
Details: MAGL inhibitory rate at 10 μM test compound; 60 min preincubation with His-hMAGL, 2-arachidonylglycerol substrate, 10 min reaction at room temperature
Summary of the method: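 Inhibition (%) was derived from arachidonic acid levels relative to enzyme-free and compound-free groups. Product was measured by online C4 solid-phase extraction and triple-quadrupole MS in negative SRM mode, corrected by arachidonic acid-d8 (3 μM in the acetonitrile added). Substrate was 2-arachidonylglycerol; enzyme was His-tagged recombinant human MAGL.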

Row | Structure (SMILES) | inhibition at 10 µM
1 | CC(C)c1ccc(OCC2CN(C(=O)c3cc4c(cc3F)OCC(=O)N4)C2)cc1 [Example 159, 7-fluoro-6-((3-((4-isopropylphenoxy)methyl)azetidin-1-yl)carbonyl)-2H-1,4-benzoxazin-3(4H)-one] | 103%
2 | CC(C)c1ccccc1OCC1CN(C(=O)c2cc3c(cc2F)OCC(=O)N3)C1 [Example 160, 7-fluoro-6-((3-((2-isopropylphenoxy)methyl)azetidin-1-yl)carbonyl)-2H-1,4-benzoxazin-3(4H)-one] | 100%
3 | Cc1ccc(OCC2CN(C(=O)c3cc4c(cc3F)OCC(=O)N4)C2)cc1 [Example 161, 7-fluoro-6-((3-((4-methylphenoxy)methyl)azetidin-1-yl)carbonyl)-2H-1,4-benzoxazin-3(4H)-one] | 102%
4 | Cc1cccc(OCC2CN(C(=O)c3cc4c(cc3F)OCC(=O)N4)C2)c1 [Example 162, 7-fluoro-6-((3-((3-methylphenoxy)methyl)azetidin-1-yl)carbonyl)-2H-1,4-benzoxazin-3(4H)-one] | 102%
5 | Cc1ccc(OCC2CN(C(=O)c3cc4c(cc3F)OCC(=O)N4)C2)cc1C [Example 163, 6-((3-((3,4-dimethylphenoxy)methyl)azetidin-1-yl)carbonyl)-7-fluoro-2H-1,4-benzoxazin-3(4H)-one] | 100%
6 | Cc1ccc(OCC2CN(C(=O)c3cc4c(cc3F)OCC(=O)N4)C2)c(F)c1 [Example 164, 7-fluoro-6-((3-((2-fluoro-4-methylphenoxy)methyl)azetidin-1-yl)carbonyl)-2H-1,4-benzoxazin-3(4H)-one] | 102%
7 | Cc1ccc(OCC2CN(C(=O)c3cc4c(cc3F)OCC(=O)N4)C2)c(C)c1 [Example 165, 6-((3-((2,4-dimethylphenoxy)methyl)azetidin-1-yl)carbonyl)-7-fluoro-2H-1,4-benzoxazin-3(4H)-one] | 103%
8 | O=C1COc2cc(F)c(C(=O)N3CC(COc4ccccc4C4CCCC4)C3)cc2N1 [Example 166, 6-((3-((2-cyclopentylphenoxy)methyl)azetidin-1-yl)carbonyl)-7-fluoro-2H-1,4-benzoxazin-3(4H)-one] | 98%
9 | CC(C)(C)c1ccccc1OCC1CN(C(=O)c2cc3c(cc2F)OCC(=O)N3)C1 [Example 167, 6-((3-((2-tert-butylphenoxy)methyl)azetidin-1-yl)carbonyl)-7-fluoro-2H-1,4-benzoxazin-3(4H)-one] | 100%
10 | O=C1COc2cc(F)c(C(=O)N3CC(COc4ccccc4C4CC4)C3)cc2N1 [Example 168, 6-((3-((2-cyclopropylphenoxy)methyl)azetidin-1-yl)carbonyl)-7-fluoro-2H-1,4-benzoxazin-3(4H)-one] | 101%
11 | O=C1COc2cc(F)c(C(=O)N3CC(COc4ccc5ccccc5c4)C3)cc2N1 [Example 169, 7-fluoro-6-((3-((2-naphthyloxy)methyl)azetidin-1-yl)carbonyl)-2H-1,4-benzoxazin-3(4H)-one] | 97%
12 | O=C1COc2cc(F)c(C(=O)N3CC(COc4ccc5ncccc5c4)C3)cc2N1 [Example 170, 7-fluoro-6-((3-((quinolin-6-yloxy)methyl)azetidin-1-yl)carbonyl)-2H-1,4-benzoxazin-3(4H)-one] | 104%
13 | O=C1COc2cc(F)c(C(=O)N3CC(COc4ccc5cccnc5c4)C3)cc2N1 [Example 171, 7-fluoro-6-((3-((quinolin-7-yloxy)methyl)azetidin-1-yl)carbonyl)-2H-1,4-benzoxazin-3(4H)-one] | 98%
14 | O=C1COc2cc(F)c(C(=O)N3CC(COc4ccc5ccncc5c4)C3)cc2N1 [Example 172, 7-fluoro-6-((3-((isoquinolin-7-yloxy)methyl)azetidin-1-yl)carbonyl)-2H-1,4-benzoxazin-3(4H)-one] | 100%
15 | O=C1COc2cc(F)c(C(=O)N3CC(COc4ccc5cnccc5c4)C3)cc2N1 [Example 173, 7-fluoro-6-((3-((isoquinolin-6-yloxy)methyl)azetidin-1-yl)carbonyl)-2H-1,4-benzoxazin-3(4H)-one] | 98%
16 | COc1ccccc1-c1ccccc1OCC1CN(C(=O)c2cc3c(cc2F)OCC(=O)N3)C1 [Example 174, 7-fluoro-6-((3-(((2′-methoxybiphenyl-2-yl)oxy)methyl)azetidin-1-yl)carbonyl)-2H-1,4-benzoxazin-3(4H)-one] | 102%
17 | O=C1COc2cc(F)c(C(=O)N3CC(COc4ccc(Cl)cc4-c4nnco4)C3)cc2N1 [Example 175, 6-((3-((4-chloro-2-(1,3,4-oxadiazol-2-yl)phenoxy)methyl)azetidin-1-yl)carbonyl)-7-fluoro-2H-1,4-benzoxazin-3(4H)-one] | 97%
18 | CCc1ccc(-c2ccnc(C)c2OCC2CN(C(=O)c3cc4c(cc3F)OCC(=O)N4)C2)nc1 [Example 176, 6-((3-(((5-ethyl-2′-methyl-2,4′-bipyridin-3′-yl)oxy)methyl)azetidin-1-yl)carbonyl)-7-fluoro-2H-1,4-benzoxazin-3(4H)-one] | 95%
19 | Cc1nccc(-c2ccccn2)c1OCC1CN(C(=O)c2cc3c(cc2F)OCC(=O)N3)C1 [Example 177, 7-fluoro-6-((3-(((2′-methyl-2,4′-bipyridin-3′-yl)oxy)methyl)azetidin-1-yl)carbonyl)-2H-1,4-benzoxazin-3(4H)-one] | 91%
20 | Cc1cc(OCC2CN(C(=O)c3cc4c(cc3F)OCC(=O)N4)C2)n(-c2ccccn2)n1 [Example 178, 7-fluoro-6-((3-(((3-methyl-1-(pyridin-2-yl)-1H-pyrazol-5-yl)oxy)methyl)azetidin-1-yl)carbonyl)-2H-1,4-benzoxazin-3(4H)-one] | 94%
21 | O=C1COc2cc(F)c(C(=O)N3CC(COc4noc5ccc(Cl)cc45)C3)cc2N1 [Example 180, 6-((3-(((5-chloro-1,2-benzoxazol-3-yl)oxy)methyl)azetidin-1-yl)carbonyl)-7-fluoro-2H-1,4-benzoxazin-3(4H)-one] | 96%
22 | O=C1COc2cc(F)c(C(=O)N3CC(COc4ccc5nccn5c4-c4ccc(F)cc4)C3)cc2N1 [Example 181, 7-fluoro-6-((3-(((5-(4-fluorophenyl)imidazo[1,2-a]pyridin-6-yl)oxy)methyl)azetidin-1-yl)carbonyl)-2H-1,4-benzoxazin-3(4H)-one] | 99%
23 | O=C1COc2cc(F)c(C(=O)N3CC(COc4ccc(Br)cc4)C3)cc2N1 [Example 182, 6-((3-((4-bromophenoxy)methyl)azetidin-1-yl)carbonyl)-7-fluoro-2H-1,4-benzoxazin-3(4H)-one] | 98%
24 | Cc1ccc(OCC2CN(C(=O)c3cc4c(cc3F)OCC(=O)N4)C2)cc1Cl [Example 183, 6-((3-((3-chloro-4-methylphenoxy)methyl)azetidin-1-yl)carbonyl)-7-fluoro-2H-1,4-benzoxazin-3(4H)-one] | 99%
25 | Cc1cc(OCC2CN(C(=O)c3cc4c(cc3F)OCC(=O)N4)C2)ccc1Cl [Example 184, 6-((3-((4-chloro-3-methylphenoxy)methyl)azetidin-1-yl)carbonyl)-7-fluoro-2H-1,4-benzoxazin-3(4H)-one] | 100%
26 | O=C1COc2cc(F)c(C(=O)N3CC(COc4ccc(Cl)cc4Br)C3)cc2N1 [Example 185, 6-((3-((2-bromo-4-chlorophenoxy)methyl)azetidin-1-yl)carbonyl)-7-fluoro-2H-1,4-benzoxazin-3(4H)-one] | 100%
